Measured values: publication PMC5315738 (Clinical Pharmacokinetics, 2016)
Where two headings read alike, the source gives them in different places.

Legend:
[1] = test system: human serum albumin; conditions: 45 g/L albumin, in vitro; cited from earlier work
[2] = cited from earlier work
[3] = type: in vivo; conditions: human, plasma, oral
[4] = test system: HER2; conditions: HER2, cell-free; cited from earlier work
[5] = test system: ErbB4; conditions: ErbB4, cell-free; cited from earlier work
[6] = test system: EGFR, HER2, ErbB4 phosphorylation and ErbB3 transphosphorylation; conditions: wide variety of cell lines; cited from earlier work
[7] = test system: P-gp; conditions: read-out: inhibition constant (K i), digoxin transport; cited from earlier work
[8] = test system: P-gp; conditions: Caco-2 monolayers and human P-gp-expressing LLC-PK1 cells; cited from earlier work
[9] = test system: BCRP; conditions: in vitro; cited from earlier work
[10] = test system: OATP, OAT and OCT drug transporters; conditions: transfected HEK293 cell lines; cited from earlier work
[11] = physiological pH range of 1–7.5; cited from earlier work
[12] = cited from earlier work; remark: listed apart in the source
[13] = cited from earlier work; remark: listed apart in the source
[14] = test system: cytochrome P450 (CYP) isoenzymes; conditions: human hepatocytes and human liver microsomes; ref Boehringer Ingelheim unpublished data, 26; cited from earlier work
[15] = cited from earlier work; remark: listed apart in the source
[16] = minipigs, cited from earlier work
[17] = mouse; ref Boehringer Ingelheim unpublished data, 25, 28; cited from earlier work
[18] = rabbit; ref Boehringer Ingelheim unpublished data, 25, 28; cited from earlier work
[19] = all animal species (rabbits, rats, minipigs and mice), 0.05–0.5 μM; cited from earlier work
[20] = in vitro and in vivo toxicology studies; cited from earlier work
[21] = cited from earlier work; for V z/F, gMean / gMean terminal half-life: 10–100 mg doses
[22] = PopPK, cited from earlier work
[23] = after a high-fat, high-caloric meal; cited from earlier work
[24] = human; cited from earlier work
[25] = cited from earlier work; remark: listed apart in the source
[26] = cited from earlier work; remark: listed apart in the source
[27] = cited from earlier work; remark: listed apart in the source
[28] = a P-gp substrate; cited from earlier work
[29] = cited from earlier work; remark: listed apart in the source
[30] = LUX-Lung 3, cited from earlier work
[31] = afatinib 20 mg, ritonavir 200 mg twice daily administered 1 h before afatinib, healthy subjects

## CN(C)C/C=C/C(=O)Nc1cc2c(Nc3ccc(F)c(Cl)c3)ncnc2cc1O[C@H]1CCOC1 [afatinib dimaleate]
[1]
  binding to isolated human serum albumin: 79.6%
[2]; within 216 h after oral dose of 15 mg [14C]-radiolabelled afatinib dimaleate
  dose recovered in the urine: 4.29%
[2]; within 312 h after oral dose of 15 mg [14C]-radiolabelled afatinib dimaleate
  dose recovered in the faeces: 85.4%

## CN(C)CC=CC(=O)Nc1cc2c(Nc3ccc(F)c(Cl)c3)ncnc2cc1O[C@H]1CCOC1 [afatinib, N-[4-[(3-chloro-4-fluorophenyl)amino]-7-[[(3S)-tetrahydro-3-furanyl]oxy]-6-quinazolinyl]-4-(dimethylamino)-2-butenamide]
[3]
  half-life: ~37 h
[4]
  potency to inhibit kinase: nanomolar potency
[5]
  potency to inhibit kinase: nanomolar potency
[6]
  potency of inhibition of phosphorylation in cells: low nanomolar range
[7]
  Ki: 3.4 µM
[8]
  substrate of the efflux transporter P-gp: P-gp substrate
[9]
  substrate and inhibitor of the efflux transporter BCRP: substrate and inhibitor
[10]
  in vitro transport of afatinib by OATP, OAT, OCT: no relevant in vitro transport
[11]
  solubility: highly soluble
[12]
  passive permeability through cell membranes: high passive permeability
[13]
  BCS class: BCS class 1 or 3
[14]
  potential to inhibit or induce CYP isoenzymes: low potential to inhibit or induce
[15]; rat, ref Boehringer Ingelheim unpublished data, 25, 28
  excretion of unchanged parent compound: > 50%
[15]; rats, intravenous dosing
  volume of distribution: 16.2 L/kg
[16]; intravenous dosing
  volume of distribution: 12.4 L/kg
[16]; ref Boehringer Ingelheim unpublished data, 25, 28
  excretion of unchanged parent compound: > 72%
[17]
  excretion of unchanged parent compound: > 60%
[18]
  excretion of unchanged parent compound: > 87%
[19]
  Mean plasma protein binding: > 92%
[20]
  genotoxicity: no evidence of genotoxicity
[21]; once-daily dosing
  time to achieve steady-state: ≤ 8 days
[21]; single doses
  V z/F, gMean: 1940 L
  gMean terminal half-life: 21 h
  Overall drug clearance (CL/F), gMean: 1050 mL/min
[21]; steady state
  V z/F, gMean: 2770 L
  gMean terminal half-life: 37 h
  Overall drug clearance (CL/F), gMean: 898 mL/min
[22]; 2.5th percentile
  increase in exposure for CLCR 43 mL/min: 27.8%
[22]; accounting for all other covariate effects
  increase in exposure in female patients: 15%
[22]; food intake less than 3 h before or less than 1 h after afatinib administration
  decrease in exposure for food intake: 26%
[23]
  reduction of AUC∞ by food: ~39%
  reduction of C max by food: approximately 50%
[24]
  plasma protein bound: approximately 95%
[2]; ADME study
  urinary excretion of afatinib-related radioactivity: < 5%
[2]; approximate
  unchanged drug excreted in urine: approximately 5%
[25]
  effect of renal impairment on plasma protein binding: no effect
[25]; severe renal impairment
  increase in AUC in patients with severe renal impairment: approximately 50%
[26]
  effect of hepatic impairment on plasma protein binding: no effect
[27]; [31]
  increase in afatinib exposure (AUC∞) by ritonavir: 48%
  increase in afatinib exposure (C max) by ritonavir: 39%
[27]; afatinib 40 mg, ritonavir taken concomitantly or 6 h after afatinib
  change in afatinib exposure by ritonavir: did not relevantly change
[28]
  change in exposure on concomitant administration with sirolimus: did not result in a clinically relevant change in exposure
[29]; afatinib 50 mg, over 1–24 h following administration, non-significant
  decrease of mean time-matched QTcF between baseline and day 14: 0.3 ms
[29]; dose of 50 mg
  proarrhythmic potential: does not have proarrhythmic potential
[30]; day 1 of cycle three
  interpatient variability in exposure (gCV): 67%
[30]; day 1 of cycle two
  interpatient variability in exposure (gCV): 85%
